According to patent US9066922B2, “Pharmaceutical composition for the treatment or prevention of diseases involving obesity, diabetes, metabolic syndrome, neuro-degenerative diseases and mitochondria dysfunction diseases” (MD BIOALPHA CO., LTD., priority 2005, dated 2015):

Columns and labels:
[1] = tested on: leptin receptor-deficient (ob/ob) mice; assay: Changes in leptin receptor-deficient (ob/ob) mice by administration of β-lapachone; assay type: in vivo
Protocol: (§1) This is because fat degradation is facilitated and therefore sufficient amounts of energy are generated, despite similar dietary intake. […] In order to examine fat accumulation in the liver tissue, animals were laparotomized 56 days after administration of β-lapachone, and H&E staining (FIG. 21C) and EM examination (FIG. 21D) were performed on the liver tissue.

[2] = tested on: leptin-deficient (ob/ob) mice; assay: as above; assay type: in vivo; conditions: 56 days, vs control group
Protocol: as §1

DIO C57BL/6 mice [3] = assay: Respiratory Quotient (RQ), indirect calorimeter; assay type: in vivo; conditions: measured for 7 hours, vs vehicle-administered group and control group
Protocol: FIG. 24 is a graph showing effects of β-lapachone on Respiratory Quotient (RQ) after administration of β-lapachone to DIO C57BL/6 mice.
This Example was intended to examine effects of β-lapachone on fat metabolism via measurement of Respiratory Quotient (RQ). Oxygen consumption and carbon dioxide production were measured using an Oxyscan open-circuit indirect calorimeter (AccuScan Instruments, Columbus, Ohio). This apparatus consisted of enclosed acrylic chambers (21×21×21 cm). Fresh air was drawn into each chamber at a rate of 1500 ml/min and then O2 and CO2 were allowed to pass through detectors. The concentrations of the gases were recorded in ml/kg body weight/min. RQ was calculated as the volume of CO2 produced (VCO2) divided by the volume of O2 consumed (VO2). A β-lapachone-administered group, a vehicle-administered group and a control group were placed in each apparatus, and RQ was measured for 7 hours. For acclimation of animal to new environment, mice were placed in the apparatus 2 hours prior to measurement.

[4] = tested on: mRNAs of ACC1, ACC2, FAS, LPL, SCD1; assay: Expression of genes involved in lipid metabolism in DIO mice (real-time quantitative PCR); assay type: in vivo, C57BL/6 mice; conditions: 50 mg/kg daily oral, vs control group
Protocol: In order to investigate anti-obesity effects of β-lapachone, β-lapachone was administered daily to diet-induced obesity (DIO) mice at a dose of 50 mg/kg via an oral route, and an attempt was made to confirm levels of mRNAs of acetyl CoA carboxylase (ACC) 1 (7,8), ACC2 (9), fatty acid synthase (FAS) (10,11), lipoprotein lipase (LPL) (12-15), and stearoyl-CoA desaturase 1 (SCD1) (16,17), which participate in lipid metabolism in the liver and gonadal adipose tissues, by real-time quantitative PCR. These enzymes are very important for lipid metabolism; it is known that ACC catalyzes formation of malonyl CoA from acetyl CoA, FAS catalyzes formation of palmitate from malonyl CoA, and SCD1 catalyzes formation of monounsaturated fat, thus playing a critical role in formation of triacylglycerol, a major energy store. As such, these enzymes are closely correlated with obesity, diabetes, and lipid metabolism-related diseases. […] Therefore, from the results of such increased or decreased expression of genes for the above-mentioned enzymes, it can be inferred that β-lapachone will be therapeutically effective substance for the treatment of metabolic syndromes.

AMPK and ACC = assay: Phosphorylation of AMPK & ACC in DIO C57BL/6 mice (Western blot); assay type: in vivo; conditions: 50 mg/kg daily oral
Protocol: In order to investigate anti-obesity effects of β-lapachone, β-lapachone was administered daily to diet-induced obesity (DIO) mice at a dose of 50 mg/kg via an oral route, and effects of β-lapachone on phosphorylation of AMPK and ACC, which play an important role in energy metabolism and lipogenesis in the liver and gonadal adipose tissues, were examined. […] Phosphorylated AMPK is believed to activate metabolism associated with energy. Whereas, it is believed that ACC, which is affected by activation of AMPK, is phosphorylated and lipogenic activity thereof is then inhibited, which will then exert some effects on lipid metabolism including inhibition of obesity.

Sprague-Dawley rats [5] = assay: Acute toxicity test, oral administration; assay type: in vivo; conditions: oral, 50, 100 and 200 mg/kg, observed for 2 weeks
DIO C57BL/6 mice [6] = assay: Physical endurance (swimming test) in DIO C57BL/6 mice; assay type: in vivo; conditions: single administration, 3 hours later, vs control group
Protocol: This Example was intended to measure difference in physical endurance of mice through a swimming test. For this purpose, water was placed in a cylindrical trough having a diameter of 9.5 cm and height of 25 cm, and β-lapachone was administered to DIO C57BL/6 mice. 3 hours later, a sample-administered group and a control group were placed simultaneously into each cylindrical trough for measurement, and physical endurance of each group was compared.

Sprague-Dawley rats [7] = assay: Acute toxicity test, peritoneal administration; assay type: in vivo; conditions: peritoneal, 50, 100 and 200 mg/kg, observed for 2 weeks
[8] = tested on: diet-induced obesity (DIO) C57BL/6 mice; assay: Body weight, dietary intake, fat, blood parameters and histology in diet-induced obesity (DIO) C57BL/6 mice; assay type: in vivo
Source text: FIGS. 16A through 16C show whole laparotomized states of animals after administration of β-lapachone to DIO C57BL/6 mice for 56 days and results of oil red O staining and EM examination on fat accumulation in liver tissues. […] In order to confirm improvement in condition of fatty liver in FIG. 16, accumulated fat in the liver was stained using oil red O staining and as a result, it was confirmed that fat has diminished by 90% or more, as compared to a control group.
Referring to FIG. 17, after daily administration of β-lapachone to DIO C57BL/6 mice at a dose of 50 mg/kg via an oral route, animals were laparotomized on day 56 of β-lapachone administration and perilipin staining was performed on gonadal adipose tissues.
Referring to FIG. 19, after daily administration of β-lapachone to DIO C57BL/6 mice at a dose of 50 mg/kg via an oral route, H&E staining of brown adipose tissues was performed on day 56 of administration.

[9] = liver and gonadal adipose tissues
[10] = DIO C57BL/6 mice, 56 days, vs control group
[11] = DIO mice, 50 mg/kg daily oral, day 56
[12] = DIO mice, 50 mg/kg daily oral, days 3, 7, 14, 28 and 56

CC1(C)CCC2=C(O1)c1ccccc1C(=O)C2=O [Compound 1, β-Lapachone]
dietary intake/body weight ([1]; 150 or 200 mg/kg daily oral, 56 days): notably decreased around at 10 days of administration
body weight ([1]; 150 or 200 mg/kg daily oral, 56 days, vs control group): continuous weight loss for 56 days
H&E staining on liver tissue: fat vacuoles ([1]; 56 days after administration, vs control group): almost all fat vacuoles have disappeared
EM examination on liver tissues: mitochondrial numbers ([1]; 56 days, vs control group): significant increases in mitochondrial numbers
EM examination on muscle tissue of limbs: mitochondrial shape ([1]; 56 days, vs control group): recovery of normal mitochondrial shape
EM examination on muscle tissue of limbs: numbers of mitochondria ([1]; 56 days, vs control group): significant increases in numbers of mitochondrial
EM examination on liver tissues: fat vacuoles and glycogen stores [2]: remarkably decreased fat vacuoles and glycogen stores
Respiratory Quotient (RQ) (DIO C57BL/6 mice [3]): significant difference in a RQ value
expression level of mRNA of ACC1 [4, 9]: remarkably decreased
expression level of mRNA of ACC2 [4, 9]: remarkably decreased
expression level of mRNA of FAS [4, 9]: remarkably decreased
expression level of mRNA of LPL (listed among decreased) [4, 9]: remarkably decreased
expression level of mRNA of SCD1 [4, 9]: remarkably decreased
LPL mRNA levels, increase [4]: 2 fold
phosphorylation of AMPK and ACC in the gonadal and liver tissues (AMPK and ACC): has an effect on phosphorylation of AMPK and ACC
mortality (Sprague-Dawley rats [5]): none of the animals died
swimming duration (DIO C57BL/6 mice [6]): more than two-fold swimming duration
mortality (Sprague-Dawley rats [7]): none of the animals died
visceral fat and body weight (laparotomized state) ([8]; DIO C57BL/6 mice, 56 days): conspicuous decreases in visceral fat and body weight
EM examination on liver tissues: fat vacuoles and glycogen stores [8, 10]: remarkably decreased fat vacuoles and glycogen stores
EM examination on liver tissues: mitochondrial numbers [8, 10]: significant increases in mitochondrial numbers
decrease of accumulated fat in the liver (oil red O staining) [8, 10]: ≥ 90%
weight changes in various organs [8, 10]: significant changes in weight of tissues
body weight ([8]; DIO mice on high-fat diet, 50 mg/kg daily oral, 56 days, vs control group): continuous weight loss for 56 days
dietary intake ([8]; DIO mice, 50 mg/kg daily oral, 56 days): decreases in dietary intake for first two weeks
size of adipocytes in brown adipose tissue (EM examination) [8, 11]: remarkably decreased
size of adipocytes in brown adipose tissues (H&E staining) [8, 11]: remarkably decreased
size of adipocytes in gonadal adipose tissues (perilipin staining) [8, 11]: remarkably decreased
blood fat and glucose levels [8, 12]: significantly improved
blood level of resistin [8, 12]: significantly improved
insulin resistance and leptin resistance [8, 12]: also improved
